From patent US20140220132A1, “Pharmaceutical Formulation Comprising Compounds of the Jasmonate Family” (priority 2011, published 2014)

Experiment: GC/MS analysis of incorporation of methyl jasmonate into nano carriers (inclusion complexes)
Type: physicochemical
Conditions: determined by GC
Experimental: The following analysis were performed with GC/MS (gas chromatography/mass spectrometry), showing possible breakages of the elements that are included in the jasmonate family and also inclusion of such elements in several nano carriers such as dendrimers and CDs for comparison of analytical behavior. Used dendrimers was PAMAM (poly amide amine). Cyclodextrin was used as β-cyclodextrin.
Preparation of inclusion complexes was performed according to Rajewski R A, Stella V J pharmaceutical applications of cyclodextrins. 2. In delivering the in vivo drug. J. Pharm Sci 1996; 85 (11):1142-69. Inclusion compounds, or nano/micro carriers with jasmonates, can be prepared through mixing a different concentration from zero from one or more jasmonate compounds with up to a molar proportion equivalent to the host molecule. The preparation process also includes mixing the compound resulting from metabolism of the element of the jasmonate family in a water solution or other solution with acceptable pharmaceutical salts. The resulting solution is agitated until total dissolution of components in solvent. The mixing time is of some hours until the mixture reaches thermodynamic balance. […]

CC/C=C\CC1C(=O)CCC1CC(=O)OC (centres unmarked) [methyl jasmonate]
percentage regarding incorporation of methyl jasmonate within PAMAM dendrimers (carrier PAMAM (poly amide amine) dendrimers): around 95%
percentage regarding incorporation of methyl jasmonate within β-CD (carrier β-cyclodextrin): 98-99%
